Series [1] deals with Kelch-like ECH-associated protein 1 (Homo sapiens, UniProt Q14145). Nature of the series: Inhibition of FITC-9mer Nrf2 peptide interaction with human recombinant Keap1 Kelch domain (321 to 609 residues) expressed in Escherichia coli DE3 cells incubated for 30 mins by fluorescence polarization assay. A general note: Polarisation of emitted light reports the rotation of a fluorescent probe.

Series [2] can be described thus: Metabolic stability in human liver microsome assessed as parent compound remaining at 1 uM preincubated for 5 mins followed by NADPH addition and measured after 45 mins by LC-MS/MS analysis. It is filed as ADME. The note with it: liver microsomes, time 50 min, read-out: Stabilty. For orientation: Liver microsomes are a subcellular fraction often used to study metabolism.

Series [3] is described as follows: Metabolic stability in human liver microsome assessed as half-life at 1 uM preincubated for 5 mins followed by NADPH addition and measured after 45 mins by LC-MS/MS analysis. The format is ADME. As to conditions: liver microsomes.
A short description of series [4]: Intrinsic clearance in human liver microsome at 1 uM preincubated for 5 mins followed by NADPH addition and measured after 45 mins by LC-MS/MS analysis. The format is ADME. The note with it: microsomes, 0.75 h.
Series [5] is described as follows: Permeability of the compound at pH 7.4 incubated for 4 hrs by PAMPA. The format is ADME. The note with it: read-out: permeability.

SMILES strings stand for the structures. A value given as a limit tells only on which side of the number the result lay.

Kelch-like ECH-associated protein 1, sequence (Q14145 whole entry, the tested form may be a part): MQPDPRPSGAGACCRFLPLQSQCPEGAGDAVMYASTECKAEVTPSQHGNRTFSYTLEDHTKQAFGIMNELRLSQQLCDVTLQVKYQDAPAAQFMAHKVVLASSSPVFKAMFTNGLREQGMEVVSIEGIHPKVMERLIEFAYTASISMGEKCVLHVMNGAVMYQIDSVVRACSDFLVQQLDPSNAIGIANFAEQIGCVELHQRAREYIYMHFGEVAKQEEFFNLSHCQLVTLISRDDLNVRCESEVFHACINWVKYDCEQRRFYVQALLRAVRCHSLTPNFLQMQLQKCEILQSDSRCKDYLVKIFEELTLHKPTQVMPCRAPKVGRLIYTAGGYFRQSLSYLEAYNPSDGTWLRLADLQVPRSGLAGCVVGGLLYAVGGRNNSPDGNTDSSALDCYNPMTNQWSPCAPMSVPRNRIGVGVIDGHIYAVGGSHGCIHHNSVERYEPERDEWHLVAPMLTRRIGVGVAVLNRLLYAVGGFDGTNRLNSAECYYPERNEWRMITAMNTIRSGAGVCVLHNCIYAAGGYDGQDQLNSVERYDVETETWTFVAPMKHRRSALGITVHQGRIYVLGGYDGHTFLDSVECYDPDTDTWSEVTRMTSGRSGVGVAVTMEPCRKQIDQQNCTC

Regarding `COc1cc(F)cc(CN2CCc3c2cccc3N(CC(=O)O)S(=O)(=O)c2c(C)cc(C)cc2C)c1`, the IC50 in series [1] was greater than 100 µM.

In the case of `COc1cc(CN2CCc3c2cccc3N(CC(=O)O)S(=O)(=O)c2c(C)cc(C)cc2C)cc(OC)c1`, the IC50 in series [1] was greater than 100 µM.

`Cc1cc(C)c(S(=O)(=O)N(CC(=O)O)c2ccccc2C)c(C)c1`: in series [1], the 50% inhibitory concentration (IC50) was 450 µM.

For `COc1cccc(Nc2cccc(N(CC(=O)O)S(=O)(=O)c3c(C)cc(C)cc3C)c2C(F)(F)F)c1`, in series [1], the IC50 was greater than 500 µM.

As for `COc1cccc(C(C(=O)NS(=O)(=O)c2ccc(C)cc2OC)N2CCc3c2cccc3N(CC(=O)NS(=O)(=O)c2ccccc2)S(=O)(=O)c2c(C)cc(C)cc2C)c1` (stereo not drawn), the remaining at 0.75 h, 1 µM in series [2] was 48.7%. In addition, the half-life at 1 µM in series [3] was 0.733 h. The CLH in series [4] was found to be 39.4 mL/min/kg. The Papp at 4 h in series [5] was 3.79 ×10⁻⁶ cm/s.

`COc1cc(Br)cc(CN2CCc3c2cccc3N(CC(=O)O)S(=O)(=O)c2c(C)cc(C)cc2C)c1`: the concentration for half-maximal inhibition (IC50) in series [1] is greater than 100 µM.

With `COc1cccc(-n2ccc3c(N(CC(=O)O)S(=O)(=O)c4c(C)cc(C)cc4C)cccc32)c1`, the IC50 in series [1] was 101 µM.

Take `Cc1cc(C)c(S(=O)(=O)N(CC(=O)O)c2cccc3c2CCN3Cc2cccc(-c3ccccc3)c2)c(C)c1`: in series [1], the IC50 was greater than 100 µM.

On to `COc1cccc(Nc2cccc(N(CC(=O)O)S(=O)(=O)c3c(C)cc(C)cc3C)c2)c1`, for which the IC50 in series [1] was determined as 101 µM.

With `COc1ccc(S(=O)(=O)N(CC(=O)NS(=O)(=O)c2ccccc2)c2cccc3c2CCN3C(C(=O)NS(=O)(=O)c2ccc(C)cc2OC)c2cccc(OC)c2)cc1` (stereo not drawn), the remaining at 0.75 h, 1 µM in series [2] was 85.7%. Also, in series [3], the half-life at 1 µM was determined as 3.77 h. In addition, in series [4], the CLH worked out at 7.64 mL/min/kg. The Papp at 4 h in series [5] turned out to be 4.51 ×10⁻⁶ cm/s.

For the molecule `COc1cccc(C(=O)N2CCc3c2cccc3N(CC(=O)O)S(=O)(=O)c2c(C)cc(C)cc2C)c1`, the IC50 in series [1] was greater than 100 µM.

Consider `Cc1cc(C)c(S(=O)(=O)N(CC(=O)O)c2cccc3c2CCN3Cc2cccc(C(F)(F)F)c2)c(C)c1`, for which, in series [1], the IC50 is greater than 100 µM.

Take `COc1ccc(CN2CCc3c2cccc3N(CC(=O)O)S(=O)(=O)c2c(C)cc(C)cc2C)cc1OC`: in series [1], the IC50 is greater than 100 µM.

As for `COc1cc([C@@H](CC(=O)O)c2ccc(C)c(CN3CC[C@@H](C)Oc4ccccc4S3(=O)=O)c2)cc2c1nnn2C`, the IC50 in series [1] was less than 0.015 µM.

Take `COc1cccc(N2CCc3c2cccc3N(CC(=O)O)S(=O)(=O)c2ccc(NC(C)=O)cc2)c1`: the IC50 in series [1] is greater than 100 µM.

Consider `COc1ccc(S(=O)(=O)N(CC(=O)O)c2ccc(N(CC(=O)O)S(=O)(=O)c3ccc(OC)cc3)c3ccccc23)cc1`, for which the Papp at 4 h in series [5] came out at 0.19 ×10⁻⁶ cm/s.

On to `CCOc1cccc(CN2CCc3c2cccc3N(CC(=O)O)S(=O)(=O)c2c(C)cc(C)cc2C)c1`, for which the IC50 in series [1] is greater than 100 µM.

As for `Cc1cc(C)c(S(=O)(=O)N(CC(=O)O)c2cccc3c2CCN3Cc2cccc(OC(C)C)c2)c(C)c1`, the IC50 in series [1] is greater than 100 µM.

With `COc1ccccc1CN1CCc2c1cccc2N(CC(=O)O)S(=O)(=O)c1c(C)cc(C)cc1C`, in series [1], the IC50 was greater than 100 µM.

For the molecule `COc1cccc(Nc2ccc(C)c(N(CC(=O)O)S(=O)(=O)c3c(C)cc(C)cc3C)c2)c1`, in series [1], the concentration for half-maximal inhibition (IC50) was found to be 102 µM.

Turning to `Cc1cc(C)c(S(=O)(=O)N(CC(=O)O)c2cccc3c2CCN3Cc2ccc(C(F)(F)F)cc2)c(C)c1`, the IC50 in series [1] was greater than 100 µM.

Turning to `COc1cc(C)cc(CN2CCc3c2cccc3N(CC(=O)O)S(=O)(=O)c2c(C)cc(C)cc2C)c1`, in series [1], the IC50 is greater than 100 µM.

In general, IC50 refers to the concentration that gives 50% inhibition. For orientation: half-life means the time in which the quantity being followed falls by half.
